Data published in patent publication US20250019373A1, “ARYL OR HETEROARYL DERIVATIVE, AND PHARMACEUTICAL COMPOSITION COMPRISING SAME AS ACTIVE INGREDIENT FOR PREVENTION OR TREATMENT OF KINASE-RELATED DISEASES” (VORONOI INC., priority 2021, published 2025).
pEC50: −log10 of the molar value.

Tested on: HT-29 cells
Experiment: Cell necrosis inhibitory activity under necroptosis-inducing conditions (TNF-α, Z-VAD-FMK, LCL161) in HT-29 cells, Cell Titer-Glo
Format: cell-based
Conditions: Homo sapiens, 100 ng/mL TNF-α + 25 μM Z-VAD-FMK + Smac mimetic LCL161, 24 hours, cell viability
Experimental: To evaluate the cell necrosis inhibitory activity of the compound according to the present invention, an experiment was conducted as follows.
To evaluate the efficacy of inhibiting cell necrosis under TNF-α-mediated cell death-inducing conditions, a HT-29 cell line (Korean Cell Line Bank Accession No. #30038) was cultured in RPMI-1640 (HyClone #SH3027.01) medium containing 10% fetal bovine serum (FBS) and 1% penicillin/streptomycin to analyze cell viability. More specifically, for testing, the cell line was seeded in a 96-well flat bottom plate (Corning #3903) at a concentration of 10,000 cells/well and incubated at 37° C. under a 5% CO2 condition for 24 hours. Each well was treated with 100 ng/mL TNF-α, 25 μM pan-caspase inhibitor (Z-VAD-FMK, Selleckchem #S8102), and 10 µM Smac mimetic LCL161 (Selleckchem #S7009) and allowed to react for 10 minutes. The compounds of Examples were treated at 11 concentrations (the highest concentration being 0.1 μM or 1 μM) with a 3-fold concentration gradient, and as a control, dimethyl sulfoxide (DMSO) was treated at a concentration of 0.05% (v/v), which is the same as those when the compounds were treated. The treated cells were incubated for 24 hours. To confirm the degree of cell viability, 100 μL of Cell Titer-Glo (Promega #G7573) was added to the medium of the cultured cells and cultured for additional 10 minutes, and then luminescence was measured using a microplate reader. Based on the […] of control cells that were not treated with the compound, the degree of cell necrosis inhibitory activity was calculated according to the treatment concentration of each compound. Here, the concentration at which the cell necrosis inhibitory activity was 50% was determined as an EC50 (nM) value and calculated using Prism (ver. 8.4.3 #GraphPad) software.

SMILES	pEC50
COc1ccc(-c2ccc3nnn(C(C)C)c3c2)cc1NC(=O)N1OCC[C@H]1c1ccccc1 [Example 15, (S)-N-(5-(1-isopropyl-1H-benzo[d][1,2,3]triazol-6-yl)-2-methoxyphenyl)-3-phenylisoxazolidine-2-carboxamide]	7.62
Cc1ccc(-c2ccn3ncnc3c2)cc1NC(=O)N1OCC[C@H]1c1ccccc1 [Example 102, (S)-N-(5-([1,2,4]triazolo[1,5-a]pyridin-7-yl)-2-methylphenyl)-3-phenylisoxazolidine-2-carboxamide]	9.05
Cc1ncc(-c2ccn3nc(NC(=O)C4CC4)nc3c2)cc1NC(=O)N1OCC[C@H]1c1ccccc1 [Example 48, (S)-N-(5-(2-(cyclopropanecarboxamido)-[1,2,4]triazolo[1,5-a]pyridin-7-yl)-2-methylpyridin-3-yl)-3-phenylisoxazolidine-2-carboxamide]	9.40
Cc1ccc(-c2ccc3ncc(C#N)n3n2)cc1NC(=O)N1OCC[C@H]1c1ccccc1 [Example 118, (S)-N-(5-(3-cyanoimidazo[1,2-b]pyridazin-6-yl)-2-methylphenyl)-3-phenylisoxazolidine-2-carboxamide]	8.37
Cc1ccc(-c2ccc3c(N)ncnn23)cc1NC(=O)N1OCC[C@H]1c1ccccc1 [Example 100, (S)-N-(5-(4-aminopyrrolo[2,1-f][1,2,4]triazin-7-yl)-2-methylphenyl)-3-phenylisoxazolidine-2-carboxamide]	8.34
Cc1ccc(-c2ccn3nc(N)nc3c2)cc1NC(=O)N1OCC[C@H]1c1cccc(F)c1 [Example 62, (S)-N-(5-(2-amino-[1,2,4]triazolo[1,5-a]pyridin-7-yl)-2-methylphenyl)-3-(3-fluorophenyl)isoxazolidine-2-carboxamide]	9.70
Cc1ncc(-c2ccc3nc(N)nn3c2)cc1NC(=O)N1OCC[C@H]1c1cccc(F)c1 [Example 37, (S)-N-(5-(2-amino-[1,2,4]triazolo[1,5-a]pyridin-6-yl)-2-methylpyridin-3-yl)-3-(3-fluorophenyl)isoxazolidine-2-carboxamide]	8.96
Cc1ccc(-c2ccn3nc(N)cc3c2)cc1NC(=O)N1CCOC[C@H]1c1ccccc1 [Example 136, (R)-N-(5-(2-aminopyrazolo[1,5-a]pyridin-5-yl)-2-methylphenyl)-3-phenylmorpholine-4-carboxamide]	8.27
Cc1ccc(-c2ccc3nc(NC(=O)C4CC4)sc3c2)cc1NC(=O)N1OCC[C@H]1c1ccc(C#N)cc1 [Example 93, (S)-3-(4-cyanophenyl)-N-(5-(2-(cyclopropanecarboxamido)benzo[d]thiazol-6-yl)-2-methylphenyl)isoxazolidine-2-carboxamide]	9.70
COc1ncc(-c2ccc3nc(N)nn3c2)cc1NC(=O)N1OCC[C@H]1c1cccc(F)c1 [Example 58, (S)-N-(5-(2-amino-[1,2,4]triazolo[1,5-a]pyridin-6-yl)-2-methoxypyridin-3-yl)-3-(3-fluorophenyl)isoxazolidine-2-carboxamide]	8.41
Cc1ccc(-c2ccn3nc(N)cc3c2)cc1NC(=O)N1OCC2(CC2)[C@H]1c1ccccc1 [Example 140, (R)-N-(5-(2-aminopyrazolo[1,5-a]pyridin-5-yl)-2-methylphenyl)-7-phenyl-5-oxa-6-azaspiro[2.4]heptane-6-carboxamide]	8.77
Cc1ncc(-c2ccc3nc(N)nn3c2)cc1NC(=O)N1OCC[C@H]1c1ccc(C#N)cc1 [Example 68, (S)-N-(5-(2-amino-[1,2,4]triazolo[1,5-a]pyridin-6-yl)-2-methylpyridin-3-yl)-3-(4-cyanophenyl)isoxazolidine-2-carboxamide]	8.41
O=C(Nc1nc2ccc(-c3cccc(NC(=O)N4OCC[C@H]4c4ccccc4)c3)cc2s1)C1CC1 [Example 25, (S)-N-(3-(2-(cyclopropanecarboxamido)benzo[d]thiazol-6-yl)phenyl)-3-phenylisoxazolidine-2-carboxamide]	9.70
COCC(=O)Nc1cn2nc(-c3cnc(OC)c(NC(=O)N4OCC[C@H]4c4ccccc4)c3)ccc2n1 [Example 6, (S)-N-(2-methoxy-5-(2-(2-methoxyacetamido)imidazo[1,2-b]pyridazin-6-yl)pyridin-3-yl)-3-phenylisoxazolidine-2-carboxamide]	9.05
CNC(=O)c1n[nH]c2cc(-c3cnc(C)c(NC(=O)N4OCC[C@H]4c4ccccc4)c3)ccc12 [Example 21, (S)-N-(2-methyl-5-(3-(methylcarbamoyl)-1H-indazol-6-yl)pyridin-3-yl)-3-phenylisoxazolidine-2-carboxamide]	9.40
COc1ncc(-c2ccn3nc(N)nc3c2)cc1NC(=O)N1OCC[C@H]1c1cc(F)cc(F)c1 [Example 54, (S)-N-(5-(2-amino-[1,2,4]triazolo[1,5-a]pyridin-7-yl)-2-methoxypyridin-3-yl)-3-(3,5-difluorophenyl)isoxazolidine-2-carboxamide]	9.40
Cc1ccc(-c2ccc3nc(N)nn3c2)cc1NC(=O)N1OCC[C@H]1c1ccc(C#N)cc1 [Example 91, (S)-N-(5-(2-amino-[1,2,4]triazolo[1,5-a]pyridin-6-yl)-2-methylphenyl)-3-(4-cyanophenyl)isoxazolidine-2-carboxamide]	9.05
COc1ncc(-c2ccc3nc(NC(=O)CO)cn3n2)cc1NC(=O)N1OCC[C@H]1c1ccccc1 [Example 5, (S)-N-(5-(2-(2-hydroxyacetamido)imidazo[1,2-b]pyridazin-6-yl)-2-methoxypyridin-3-yl)-3-phenylisoxazolidine-2-carboxamide]	8.54
Cc1ccc(-c2ccn3nc(N)cc3c2)cc1NC(=O)N1CCO[C@@H](c2ccccc2)C1 [Example 137, (S)-N-(5-(2-aminopyrazolo[1,5-a]pyridin-5-yl)-2-methylphenyl)-2-phenylmorpholine-4-carboxamide]	7.31
Cc1ccc(-c2ccc3ncsc3n2)cc1NC(=O)N1OCC[C@H]1c1ccccc1 [Example 131, (S)-N-(2-methyl-5-(thiazolo[5,4-b]pyridin-5-yl)phenyl)-3-phenylisoxazolidine-2-carboxamide]	8.40
Cc1ncc(-c2ccc3nc(N)nn3c2)cc1NC(=O)N1OCC[C@H]1c1ccc(F)c(F)c1 [Example 55, (S)-N-(5-(2-amino-[1,2,4]triazolo[1,5-a]pyridin-6-yl)-2-methylpyridin-3-yl)-3-(3,4-difluorophenyl)isoxazolidine-2-carboxamide]	9.22
Cc1ccc(-c2ccc3nc(N)nn3c2)cc1NC(=O)N1OCC[C@H]1c1cc(F)cc(F)c1 [Example 59, (S)-N-(5-(2-amino-[1,2,4]triazolo[1,5-a]pyridin-6-yl)-2-methylphenyl)-3-(3,5-difluorophenyl)isoxazolidine-2-carboxamide]	9.15
Cc1ncc(-c2csc3c(N)ncnc23)cc1NC(=O)N1OCC[C@H]1c1ccccc1 [Example 121, (S)-N-(5-(4-aminothieno[3,2-d]pyrimidine-7-y1)-2-methylpyridin-3-yl)-3-phenylisoxazolidine-2-carboxamide]	7.93
Cc1ccc(-c2cc3c(cn2)ncn3C)cc1NC(=O)N1OCC[C@H]1c1ccccc1 [Example 133, (S)-N-(2-methyl-5-(1-methyl-1H-imidazo[4,5-c]pyridin-6-yl)phenyl)-3-phenylisoxazolidine-2-carboxamide]	8.19
COc1ccc(-c2ccc3nc(NC(C)=O)sc3c2)cc1NC(=O)N1OCC[C@H]1c1ccccc1 [Example 27, (S)-N-(5-(2-acetamidobenzo[d]thiazol-6-yl)-2-methoxyphenyl)-3-phenylisoxazolidine-2-carboxamide]	9.00
Cc1ncc(-c2ccc3nc(N)nn3c2)cc1NC(=O)N1OCC[C@H]1c1cc(F)cc(C(F)(F)F)c1 [Example 43, (S)-N-(5-(2-amino-[1,2,4]triazolo[1,5-a]pyridin-6-yl)-2-methylpyridin-3-yl)-3-(3-fluoro-5-(trifluoromethyl)phenyl)isoxazolidine-2-carboxamide]	8.14
Nc1nc2cc(-c3ccc(Cl)c(NC(=O)N4OCC[C@H]4c4ccccc4)c3)ccn2n1 [Example 124, (S)-N-(5-(2-amino-[1,2,4]triazolo[1,5-a]pyridin-7-yl)-2-chlorophenyl)-3-phenylisoxazolidine-2-carboxamide]	9.70
Cc1ccc(-c2ccc3nc(N)oc3c2)cc1NC(=O)N1OCC[C@H]1c1ccccc1 [Example 109, (S)-N-(5-(2-aminobenzo[d]oxazol-6-yl)-2-methylphenyl)-3-phenylisoxazolidine-2-carboxamide]	9.00
Cc1ccc(-c2ccn3nc(N)nc3c2)cc1NC(=O)N1OCC[C@H]1c1ccc(Cl)cc1 [Example 65, (S)-N-(5-(2-amino-[1,2,4]triazolo[1,5-a]pyridin-7-yl)-2-methylphenyl)-3-(4-chlorophenyl)isoxazolidine-2-carboxamide]	9.70
Nc1nc2ccc(-c3ccc(F)c(NC(=O)N4OCC[C@H]4c4ccccc4)c3)cn2n1 [Example 96, (S)-N-(5-(2-amino-[1,2,4]triazolo[1,5-a]pyridin-6-yl)-2-fluorophenyl)-3-phenylisoxazolidine-2-carboxamide]	8.72
